Conditions: mouse, in vivo
Text: Mice (Mus musculus) were bred in the Netherlands Cancer Institute and housed and handled according to institutional guidelines complying with Dutch and EU legislation. Animals used were WT, Abcb1a/1b^-/- [39], Abcg2^-/- [40], Abcb1a/1b;Abcg2^-/- [41], Cyp3a^-/- [42], and Oatp1a/1b^-/- [43] mice of a >99% FVB/N strain background. Homozygous CYP3A4 humanized transgenic mice (Cyp3aXAV) were generated by cross-breeding of transgenic mice with stable human CYP3A4 expression in the liver or intestine, respectively, in a Cyp3a^-/- background. Proper functionality of the knockout and transgenic strains was monitored by regular testing with a variety of drug substrates. All the mice used were between 10 and 15 weeks of age. Animals were kept in a temperature-controlled environment with a 12 h light/12 h dark cycle and received a standard diet (Transbreed, SDS Diets, Technilab-BMI, The Netherlands) and acidified water ad libitum. Depending on the type of experiment, 5 or 6 mice were tested in each experimental group. All experimental animal protocols, including power calculations, were ethically assessed and designed under the nationally approved DEC/CCD project AVD301002016595 (approval date, 10 August 2016) and evaluated and approved by the institutional animal care and use committee (IACUC) of the Netherlands Cancer Institute.
EAI045 was dissolved in dimethyl sulfoxide (DMSO) at a concentration of […], and then diluted with a mixture of polysorbate 80/ethanol (1:1, v/v), and further diluted with 5% (w/v) glucose in water to yield a concentration of 2 mg/mL. Final concentrations for DMSO, polysorbate 80, ethanol, and glucose in the dosing solution were 5%, 2.5%, 2.5%, and 4.5% (v/v/v/w), respectively. Elacridar hydrochloride was dissolved in DMSO at a concentration of 53 mg/mL, then diluted with a mixture of polysorbate 80, ethanol, and water [20:13:67, (v/v/v)] to yield a concentration of 5 mg/mL elacridar. The final oral dose of elacridar was 50 mg/kg body weight. All dosing solutions were prepared freshly on the day of experiment.
To minimize variation in absorption, mice were fasted for about 3 h before EAI045 was administered by gavage into the stomach (n = 5–6), using a blunt-ended needle. EAI045 was administered orally at dose of 20 mg/kg. Elacridar was administered orally at a dose of 50 mg/kg, 3 h prior to oral EAI045 administration. For the 24- or 4-h experiments, tail vein blood samplings were performed at 5 min, 30 min, 1, 2, 4, and 8 h, or 5 min, 15 min, 30 min, 1, and 2 h time points after oral administration of EAI045, respectively, using microvettes containing heparin. For the 30 min experiments, blood samplings were performed at 5, 10, and 20 min from the tail vein. At the last time point (24 h, 4 h, or 30 min), mice were anesthetized with isoflurane and blood was collected by cardiac puncture. Then, mice were sacrificed by cervical dislocation and brain, liver, spleen, kidneys, lung, small intestine with content (SIWC), and testis were rapidly removed and weighed. Tissues were homogenized on ice in appropriate volumes of 2% (w/v) BSA. Blood samples were centrifuged at 9000× g for 6 min at 4 °C immediately after collection. All samples were stored at −30 °C until analysis.

**Q.** What does the source list for `O=C(Nc1nccs1)C(c1cc(F)ccc1O)N1Cc2ccccc2C1=O` (centres unmarked) [EAI045]?
**A.** kidney-to-plasma ratio, fold change: 1.6 fold; systemic exposure of EAI045 (po, 20 mg/kg): not changed

Reference: paper PMC9505538, “P-Glycoprotein (MDR1/ABCB1) Restricts Brain Accumulation of the Novel EGFR Inhibitor EAI045 and Oral Elacridar Coadministration Enhances Its Brain Accumulation and Oral Exposure” (Pharmaceuticals, 2022)
